Experimental data from patent US20260327195A1, “2-STYRYLBENZOTHIAZOLE DERIVATIVES AS ALPHA-SYNUCLEIN BINDING COMPOUNDS” (Eberhard Karls Universität Tübingen Medizinische Fakultät, priority 2023, published 2026).

Tests used:
[1] = In vivo dynamic PET/MR imaging, pharmacokinetic profile; set-up: species or system mouse (wild-type female C57BL/6J); conditions: i.v.
Method: The animal experiments were performed in compliance to the European directives on the protection and use of laboratory animals (Council Directive 2010/63/UE) and the German animal welfare act with approval from the local authorities (Regierungspräsidium Tuebingen, R3/19G). Three healthy wild-type female C57BL/6J mice (20.3±0.9 g; 9 weeks old) purchased from Charles River Laboratories (Sulzbach, Germany) were maintained in a vivarium on a 12:12 hour light dark cycle and were kept at a temperature of 22° C. with 40-60% humidity and free access to a standard diet and tap water.
The mice (n=3) were anaesthetized with 1.5% isoflurane evaporated in 100% oxygen at a flow rate of 0.8 L/min. Body temperature of 37° C. was maintained using a feedback temperature control unit. PET imaging studies were performed on Inveon dedicated microPET system (Inveon D-PET, Siemens, Knoxville, TN, USA). Five seconds after the start of PET acquisition, mice were injected intravenously with 9.9±0.6 MBq of [^18F]MFSB (Am=46.2±2.5 GBq/μmol at time of injection). The one-hour dynamic acquisitions were divided into 39 time frames (12×5 s, 6×10 s, 6×30 s, 5×60 s and 10×300 s). A 13-minute transmission measurement with a cobalt-57 point source was performed for attenuation correction. Subsequently, an anatomical magnetic resonance (MR) scan with a 7 Tesla MR scanner (ClinScan, Bruker BioSpin MRI GmbH, Ettlingen, Germany) using a rat whole-body volume coil and the Paravision software (v6.0.1, Bruker, Ettlingen, Germany) using a T2-weighted Turbo-RARE MRI sequence.
The PET image was reconstructed via the OSEM3D/SP-MAP reconstruction algorithm and coregistered to the whole-body MRI scan. Volumes of interest (VOIs) were hand-drawn for the relevant organs based on the MR anatomy in PMOD (PMOD Technologies, Faellanden, Switzerland, Version 4.2) and VOIs at different regions in the mouse brain were extracted using the atlas provided by PMOD to calculate the respective time-activity curves (TACs). Standardized uptake values (SUVs) were calculated as a ratio of the detected activity with injected activity and weight (SUV=(TAC (kBq/cc)/inj. activity (kBq))*weight (g)).

[2] = target: αSYN pathology in MSA human brain slices (Homo sapiens, UniProt P37840); assay: In vitro autoradiography on MSA human brain slices (cerebellum); type: binding
Method: (§1) Post-mortem human brain slices (10 μm thickness) were obtained from and the subject cases were analyzed by the Neurobiobank München (NBM, Munich, Germany), where tissues were collected on the basis of written informed consent according to the guidelines of the ethics committee of the Ludwig-Maximilians-University Munich, Germany (#345-13). The use of brain tissue samples in this study was approved by the ethics committee of the Faculty of Medicine at the University of Tuebingen (Ethics approval number: 813/2018BO2). Table 1 summarizes the information of the subjects from which samples were obtained and used in the experiment.
(§2) For autoradiography, brain slices were thawed for one hour before pre-incubation in BSA buffer for 25 minutes at room temperature. To determine total binding (TB), brain slices were incubated with the tracer (10 nM [^18F]PFSB, 10 nM [^18F]MFSB). Incubation of consecutive slices with the correspondent non-radioactive compounds (10 μM PFSB, […]) was performed to determine non-specific binding (NSB). The non-radioactive compounds were prepared by dissolving in DMSO to 10 mM, which yielded DMSO concentration of ≤0.1% in the final solution. Incubation was carried out for one hour at room temperature with subsequent washing in cold BSA buffer (three times for ten minutes) followed by three dipping in cold deionized water. After drying under UV lamps, brain slices were exposed to a storage phosphor screen (Molecular Dynamics, Caesarea, Israel) for 18 hours, which was then scanned in a phosphor imager (STORM 840, Molecular dynamics, Sunnyvale, CA, USA).
(§3) Quantitative data analysis was performed by drawing four regions of interest (ROIs) in relevant areas of the slice and one ROI next to it for background subtraction (ImageJ 1.8.0_172, National Institute of Health, Bethesda, Maryland, USA) (Schneider, C. A. et al., NIH Image to ImageJ: 25 years of image analysis; Nat Methods 2012, 9 (7), 671-5). Specific binding (SB) is obtained by subtracting NSB from TB. The SB disease/SB control ratio was calculated by dividing by the SB in diseased tissues with the respective SB in control tissues.

[3] = target: αSYN pathology in PD human brain slices (Homo sapiens, UniProt P37840); assay: In vitro autoradiography on PD human brain slices (frontal cortex); type: binding; conditions: 10 nM tracer; NSB with 10 μM non-radioactive compound
Method: as §1
For autoradiography, brain slices were thawed for one hour before pre-incubation in BSA buffer for 25 minutes at room temperature. To determine total binding (TB), brain slices were incubated with the tracer (10 nM [^18F]PFSB, 10 nM [^18F]MFSB). […]
as §3, with “Specific binding (SB) is obtained by subtracting NSB from TB.” left out

[4] = target: T1, Aβ plaques in AD human brain slices (Homo sapiens, UniProt P05067); assay: In vitro autoradiography on AD human brain slices (frontal cortex); type: binding
T1 construct: mainly Abeta40/42 cut from APP) in post-mortem AD frontal cortex slices
Method: as §1, §2, §3

Aβ fibrils = conditions: result in words; cited from earlier work
αSYN = conditions: result in words; cited from earlier work
[5] = 10 nM tracer, NSB with 10 μM non-radioactive compound

T1 sequence (P05067 672-713 limits assumed): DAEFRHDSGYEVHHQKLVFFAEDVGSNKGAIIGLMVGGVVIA

[18F]c1ccc2nc(/C=C/c3ccc(N4CCOCC4)cc3)sc2c1 [[^18F]MFSB]
crossing of the BBB ([1]; 9.9±0.6 MBq, 60 min dynamic PET/MR): crossing of the BBB was successful
clearance from lungs and liver ([1]; after first 2 min, result in words): fast to moderate clearance
uptake in liver (SUV) ([1]; first 2 min): ≈ 5 SUV
uptake in lungs (SUV) ([1]; first 2 min): ≈ 5 SUV
clearance (brain), over 60 min ([1]; result in words): beginning of clearance was observed
kidney uptake ([1]; result in words): Significant kidney uptake
renal excretion, start ([1]; result in words): renal excretion starting in the first few minutes
SB disease/SB control, MSA2/cerebellum ctrl [2, 5]: 1.27
selectivity towards αSYN over Aβ ([2]; autoradiography, result in words, FIG. 12): validated the selective binding to αSYN
non-specific binding on MSA sections ([2]; result in words, hampered quantification of the disease/control SB ratio): with [^18F]MFSB was hampered by high NSB.
SB disease/SB control, PD/frontal cortex ctrl [3]: 1.18
SB disease/SB control, AD/frontal cortex ctrl [4, 5]: 1.03
binding in AD brain regions with Aβ plaques / AD/frontal cortex SB ratio in words ([4]; result in words, FIG. 12): remained favorable

Cc1ccc2c(c1)sc(-c1ccc(N(C)C)cc1)[n+]2C [thioflavin T]
binding to Aβ fibrils (Aβ fibrils): known to bind to Aβ fibrils
binding to αSYN (αSYN): does not bind to αSYN
